Measurements published in patent publication US8822502B2, “Insecticidal compounds” (Syngenta Crop Protection LLC, priority 2008, dated 2014).

What was measured:
Type in all cases: in vivo
Diabrotica balteata = Diabrotica balteata artificial diet test; conditions: 120 h, application rate 200 ppm (concentration in well 18 ppm), L2 larvae, 5 days, larval mortality, growth regulation
Protocol: Diabrotica Balteata (Corn Root Worm):
(§1) A 24-well microtiter plate (MTP) with artificial diet was treated with test solutions at an application rate of 200 ppm (concentration in well 18 ppm) by pipetting. After drying, the MTP's were infested with L2 larvae (6-10 per well). After an incubation period of 5 days, samples were checked for larval mortality and growth regulation.

Spodoptera littoralis = Spodoptera littoralis cotton leaf disc spray test; conditions: foliar, 72 h, application rate 200 ppm, sprayed cotton leaf discs, L1 larvae, 3 days after treatment, mortality, feeding behavior, growth regulation
Excerpt: Spodoptera Littoralis (Egyptian Cotton Leafworm):
Cotton leaf discs were placed on agar in a 24-well microtiter plate and sprayed with test solutions at an application rate of 200 ppm. After drying, the leaf discs were infested with 5 L1 larvae. The samples were checked for mortality, feeding behavior, and growth regulation 3 days after treatment (DAT).

Heliothis virescens = Heliothis virescens egg / artificial diet test; conditions: 96 h, application rate 200 ppm (concentration in well 18 ppm), eggs 0-24 h old on artificial diet, 4 days, egg mortality, larval mortality, growth regulation
Protocol: Heliothis Virescens (Tobacco Budworm):
Eggs (0-24 h old) were placed in 24-well microtiter plate on artificial diet and treated with test solutions at an application rate of 200 ppm (concentration in well 18 ppm) by pipetting. After an incubation period of 4 days, samples were checked for egg mortality, larval mortality, and growth regulation.

Plutella xylostella = Plutella xylostella artificial diet test; conditions: 144 h, application rate 200 ppm (concentration in well 18 ppm), L2 larvae, 6 days, larval mortality, growth regulation
Protocol: Plutella Xylostella (Diamond Back Moth):
as §1, with “24-well” for “A 24-well”, “(7-12” for “(6-10”, “6” for “5”

Tetranychus urticae = Tetranychus urticae bean leaf disc spray test; conditions: foliar, 192 h, application rate 200 ppm, sprayed bean leaf discs, mite populations of mixed ages, 8 days, egg, larval and adult mortality
Excerpt: Tetranychus Urticae (Two-Spotted Spider Mite):
Bean leaf discs on agar in 24-well microtiter plates were sprayed with test solutions at an application rate of 200 ppm. After drying, the leaf discs are infested with mite populations of mixed ages. 8 days later, discs are checked for egg mortality, larval mortality, and adult mortality.

Thrips tabaci = Thrips tabaci sunflower leaf disc spray test; conditions: foliar, 168 h, application rate 200 ppm, sprayed sunflower leaf discs, population of mixed ages, 7 days, mortality
Protocol: Thrips Tabaci (Onion Thrips):
Sunflower leaf discs were placed on agar in a 24-well microtiter plate and sprayed with test solutions at an application rate of 200 ppm. […] After an incubation period of 7 days, samples were checked for mortality.

Measured: pest or weed control at 200 ppm

Cc1cc(C2=NOC(c3cc(Cl)cc(Cl)c3)(C(F)(F)F)C2Br)ccc1C(=O)NC1C[S+]([O-])C1 (single isomer, unassigned) [A25, 4-[4-bromo-5-(3,5-dichloro-phenyl)-5-trifluoromethyl-4,5-dihydro-isoxazol-3-yl]-2-methyl-N-(1-oxo-thietan-3-yl)-benzamide]
≥ 80%: Diabrotica balteata

CCCCNC(=O)c1ccc(C2=NOC(c3cc(Cl)cc(Cl)c3)(C(F)(F)F)C2Br)cc1C (centres unmarked) [A1, 4-[4-bromo-5-(3,5-dichloro-phenyl)-5-trifluoromethyl-4,5-dihydro-isoxazol-3-yl]-N-butyl-2-methyl-benzamide]
not listed: Thrips tabaci
≥ 80%: all other assays above

Cc1cc(C2=NOC(c3cc(Cl)cc(Cl)c3)(C(F)(F)F)C2Br)ccc1C(=O)Nc1cccc(F)c1 (centres unmarked) [A15]
≥ 80%: all assays above

CCCCNC(=O)c1ccc(C2=NOC(c3cc(Cl)cc(Cl)c3)(C(F)(F)F)C2Cl)cc1C (centres unmarked) [B1]
≥ 80%: all assays above

CCNC(=O)c1ccc(C2=NOC(c3cc(Cl)cc(Cl)c3)(C(F)(F)F)C2Cl)cc1C (centres unmarked) [B3]
≥ 80%: all assays above

CCC(C)NC(=O)c1ccc(C2=NOC(c3cc(Cl)cc(Cl)c3)(C(F)(F)F)C2Cl)cc1C (centres unmarked) [B6]
≥ 80%: all assays above

Cc1cc(C2=NOC(c3cc(Cl)cc(Cl)c3)(C(F)(F)F)C2Cl)ccc1C(=O)NCc1ccccc1 (centres unmarked) [B8]
≥ 80%: all assays above

Cc1cc(C2=NOC(c3cc(Cl)cc(Cl)c3)(C(F)(F)F)C2Cl)ccc1C(=O)Nc1cccc(F)c1 (centres unmarked) [B14]
≥ 80%: Spodoptera littoralis | Heliothis virescens | Plutella xylostella

Cc1cc(C2=NOC(c3cc(Cl)cc(Cl)c3)(C(F)(F)F)C2Cl)ccc1C(=O)NC1CSC1 (centres unmarked) [B21]
≥ 80%: all assays above

Cc1cc(C2=NOC(c3cc(Cl)cc(Cl)c3)(C(F)(F)F)C2Cl)ccc1C(=O)NC1CCC1 (centres unmarked) [B23]
≥ 80%: all assays above

Cc1cc(C2=NOC(c3cc(Cl)cc(Cl)c3)(C(F)(F)F)C2(F)F)ccc1C(=O)NCc1ccccn1 (centres unmarked) [C1, 4-[5-(3,5-dichloro-phenyl)-4,4-difluoro-5-trifluoromethyl-4,5-dihydro-isoxazol-3-yl]-2-methyl-N-pyridin-2-ylmethyl-benzamide]
not listed: Thrips tabaci
≥ 80%: all other assays above

CCCCNC(=O)c1ccc(C2=NOC(c3cc(Cl)cc(Cl)c3)(C(F)(F)F)C2SC)cc1C (centres unmarked) [D1, N-butyl-4-[5-(3,5-dichloro-phenyl)-4-methylsulfanyl-5-trifluoromethyl-4,5-dihydro-isoxazol-3-yl]-2-methyl-benzamide]
≥ 80%: Spodoptera littoralis | Heliothis virescens | Plutella xylostella | Diabrotica balteata

CCCCNC(=O)c1ccc(C2=NOC(c3cc(Cl)cc(Cl)c3)(C(F)(F)F)C2S(C)(=O)=O)cc1C (centres unmarked) [D2, N-butyl-4-[5-(3,5-dichloro-phenyl)-4-methylsulfonyl-5-trifluoromethyl-4,5-dihydro-isoxazol-3-yl]-2-methyl-benzamide]
≥ 80%: Spodoptera littoralis | Plutella xylostella

CSC1C(c2ccc(C(=O)NC3CSC3)c(C)c2)=NOC1(c1cc(Cl)cc(Cl)c1)C(F)(F)F (centres unmarked) [D3, 4-[5-(3,5-dichloro-phenyl)-4-methylsulfanyl-5-trifluoromethyl-4,5-dihydro-isoxazol-3-yl]-2-methyl-N-thietan-3-yl-benzamide]
not listed: Thrips tabaci
≥ 80%: all other assays above

Cc1cc(C2=NOC(c3cc(Cl)cc(Cl)c3)(C(F)(F)F)C2S(C)(=O)=O)ccc1C(=O)NC1CSC1 (centres unmarked) [D4, 4-[5-(3,5-dichloro-phenyl)-4-methylsulfonyl-5-trifluoromethyl-4,5-dihydro-isoxazol-3-yl]-2-methyl-N-thietan-3-yl-benzamide]
≥ 80%: Heliothis virescens | Tetranychus urticae

CCCCNC(=O)c1ccc(C2=NOC(c3cc(Cl)cc(Cl)c3)(C(F)(F)F)C2C)cc1C (centres unmarked) [E1, N-butyl-4-[5-(3,5-dichloro-phenyl)-4-methyl-5-trifluoromethyl-4,5-dihydro-isoxazol-3-yl]-2-methyl-benzamide]
≥ 80%: all assays above

Cc1cc(C2=NOC(c3cc(Cl)cc(Cl)c3)(C(F)(F)F)C2C)ccc1C(=O)NC1CSC1 (centres unmarked) [E2, 4-[5-(3,5-dichloro-phenyl)-4-methyl-5-trifluoromethyl-4,5-dihydro-isoxazol-3-yl]-2-methyl-N-thietan-3-yl-benzamide]
≥ 80%: all assays above

CCNC(=O)c1ccc(C2=NOC(c3cc(Cl)cc(Cl)c3)(C(F)(F)F)C2Br)c2ccccc12 (centres unmarked) [F2]
≥ 80%: Diabrotica balteata

CCCCNC(=O)c1ccc(C2=NOC(c3cc(Cl)cc(Cl)c3)(C(F)(F)F)C2Br)c2ccccc12 (centres unmarked) [F3]
≥ 80%: Spodoptera littoralis | Heliothis virescens | Plutella xylostella | Thrips tabaci

CCC(C)NC(=O)c1ccc(C2=NOC(c3cc(Cl)cc(Cl)c3)(C(F)(F)F)C2Br)c2ccccc12 (centres unmarked) [F6]
not listed: Tetranychus urticae
≥ 80%: all other assays above

O=C(NCc1ccccc1)c1ccc(C2=NOC(c3cc(Cl)cc(Cl)c3)(C(F)(F)F)C2Br)c2ccccc12 (centres unmarked) [F8]
not listed: Tetranychus urticae
≥ 80%: all other assays above

O=C(Nc1cccc(F)c1)c1ccc(C2=NOC(c3cc(Cl)cc(Cl)c3)(C(F)(F)F)C2Br)c2ccccc12 (centres unmarked) [F14]
not listed: Tetranychus urticae
≥ 80%: all other assays above

O=C(NC1CSC1)c1ccc(C2=NOC(c3cc(Cl)cc(Cl)c3)(C(F)(F)F)C2Br)c2ccccc12 (centres unmarked) [F21]
≥ 80%: all assays above
